Test results: patent publication US20140357713A1, “ANTIMICROBIAL COMPOUNDS AND METHODS OF USE” (NexMed Holdings, Inc., priority 2012, published 2014)
Where a name gives a salt, the structure may show the parent alone.

Experiments:
Format in all cases: cell-based
[1] = test system: Enterobacter aerogenes (ATCC 13048); experiment: MIC assay with different strains, Example 35
Method: (§1) The minimum inhibitory concentration (MIC) is used to determine the lowest concentration of a test product claiming antimicrobial effects that will inhibit growth of a microorganism. Each microbial suspension was adjusted approximately 10^7 to 10^8 colony forming units (CFU) per mL and labeled as the stock suspension. The stock suspension was further diluted to 1:200 in Mueller Hinton broth to obtain a test sample having a concentration of […]. The test sample was then tested for MIC as described in M202.R02. After incubation, each tube was examined for turbidity, which indicated growth or no growth. For the tubes where the product rendered the media turbid, an aliquot of the media was streaked onto agar plates to confirm growth or lack of growth.

[2] = test system: Corynebacterium jeikeium (ATCC 43734); experiment: MIC assay with different strains, Example 35
Method: as §1

[3] = test system: Acinetobacter baumannii (ATCC 19606); experiment: MIC assay with different strains, Example 35
Method: as §1

[4] = test system: Haemophilus influenza (ATCC 19418); experiment: MIC assay with different strains, Example 35
Method: as §1

[5] = test system: Pseudomonas aeruginosa (ATCC 9027); experiment: MIC assay with different strains, Example 35
Method: as §1

Staphylococcus aureus = experiment: Extended time kill study, Example 34 (0 to 24 h)
In short: (§2)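 Strain suspensions prepared as for MIC testing were mixed 1:1 with compound solution at higher multiples of MIC. Samples taken over 0 to 24 h were diluted in test medium and plated on agar, and colonies were counted after 24–48 h incubation.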

Escherichia coli = experiment: Extended time kill study, Example 34 (0 to 24 h)
In short: as §2

## CCCCCCCCCCCCOC(=O)C(C)N(C)C (centres unmarked) [Nex-05, Dodecyl 2-(dimethylamino)propanoate hydrochloride]
[1]; Example 35
  MIC: 1.25%
[1]; Sample Concentration 0.039%
  Growth/no growth: Growth
[1]; Sample Concentration 0.078%
  Growth/no growth: Growth
[1]; Sample Concentration 0.156%
  Growth/no growth: Growth
[1]; Sample Concentration 0.313%
  Growth/no growth: Growth
[1]; Sample Concentration 0.625%
  Growth/no growth: Growth
[2]; Example 35
  MIC: 0.625%
[2]; Sample Concentration 0.039%
  Growth/no growth: Growth
[2]; Sample Concentration 0.078%
  Growth/no growth: Growth
[2]; Sample Concentration 0.156%
  Growth/no growth: Growth
[2]; Sample Concentration 0.313%
  Growth/no growth: Growth
[3]; Example 35
  MIC: 0.313%
[3]; Sample Concentration 0.039%
  Growth/no growth: Growth
[3]; Sample Concentration 0.078%
  Growth/no growth: Growth
[3]; Sample Concentration 0.156%
  Growth/no growth: Growth
[4]; Example 35
  MIC: 5%
[4]; Sample Concentration 0.039%
  Growth/no growth: Growth
[4]; Sample Concentration 0.078%
  Growth/no growth: Growth
[4]; Sample Concentration 0.156%
  Growth/no growth: Growth
[4]; Sample Concentration 0.313%
  Growth/no growth: Growth
[4]; Sample Concentration 0.625%
  Growth/no growth: Growth
[4]; Sample Concentration 1.25%
  Growth/no growth: Growth
[4]; Sample Concentration 2.5%
  Growth/no growth: Growth
[5]; Example 35
  MIC: 1.25%
[5]; Sample Concentration 0.039%
  Growth/no growth: Growth
[5]; Sample Concentration 0.078%
  Growth/no growth: Growth
[5]; Sample Concentration 0.156%
  Growth/no growth: Growth
[5]; Sample Concentration 0.313%
  Growth/no growth: Growth
Staphylococcus aureus; 1 × MIC, 1 h
  Viable counts, Staphylococcus aureus time kill study: <3 Log10 CFU/mL
Staphylococcus aureus; 1 × MIC, 2 h
  Viable counts, Staphylococcus aureus time kill study: <3 Log10 CFU/mL
Staphylococcus aureus; 1 × MIC, 4 h
  Viable counts, Staphylococcus aureus time kill study: <3 Log10 CFU/mL
Staphylococcus aureus; 1 × MIC, 6 h
  Viable counts, Staphylococcus aureus time kill study: <3 Log10 CFU/mL
Staphylococcus aureus; 1 × MIC, 24 h
  Viable counts, Staphylococcus aureus time kill study: <1 Log10 CFU/mL
Staphylococcus aureus; 1×MIC, time 0
  Viable counts, Staphylococcus aureus time kill study: 6.24 Log10 CFU/mL
Staphylococcus aureus; 2 × MIC, 1 h
  Viable counts, Staphylococcus aureus time kill study: <3 Log10 CFU/mL
Staphylococcus aureus; 2 × MIC, 2 h
  Viable counts, Staphylococcus aureus time kill study: <3 Log10 CFU/mL
Staphylococcus aureus; 2 × MIC, 4 h
  Viable counts, Staphylococcus aureus time kill study: <3 Log10 CFU/mL
Staphylococcus aureus; 2 × MIC, 6 h
  Viable counts, Staphylococcus aureus time kill study: <3 Log10 CFU/mL
Staphylococcus aureus; 2 × MIC, 24 h
  Viable counts, Staphylococcus aureus time kill study: <1 Log10 CFU/mL
Staphylococcus aureus; 2 × MIC, time 0
  Viable counts, Staphylococcus aureus time kill study: 6.25 Log10 CFU/mL
Staphylococcus aureus; 4 × MIC, 1 h
  Viable counts, Staphylococcus aureus time kill study: <3 Log10 CFU/mL
Staphylococcus aureus; 4 × MIC, 2 h
  Viable counts, Staphylococcus aureus time kill study: <3 Log10 CFU/mL
Staphylococcus aureus; 4 × MIC, 4 h
  Viable counts, Staphylococcus aureus time kill study: <3 Log10 CFU/mL
Staphylococcus aureus; 4 × MIC, 6 h
  Viable counts, Staphylococcus aureus time kill study: <3 Log10 CFU/mL
Staphylococcus aureus; 4 × MIC, 24 h
  Viable counts, Staphylococcus aureus time kill study: <1 Log10 CFU/mL
Staphylococcus aureus; 4 × MIC, time 0
  Viable counts, Staphylococcus aureus time kill study: 6.23 Log10 CFU/mL
Escherichia coli; 1 × MIC, 1 h
  Viable counts, Escherichia coli time kill study: <1 Log10 CFU/mL
Escherichia coli; 1 × MIC, 2 h
  Viable counts, Escherichia coli time kill study: <1 Log10 CFU/mL
Escherichia coli; 1 × MIC, 4 h
  Viable counts, Escherichia coli time kill study: <1 Log10 CFU/mL
Escherichia coli; 1 × MIC, 6 h
  Viable counts, Escherichia coli time kill study: <1 Log10 CFU/mL
Escherichia coli; 1 × MIC, 24 h
  Viable counts, Escherichia coli time kill study: <1 Log10 CFU/mL
Escherichia coli; 1×MIC, time 0
  Viable counts, Escherichia coli time kill study: 5.10 Log10 CFU/mL
Escherichia coli; 2 × MIC, 1 h
  Viable counts, Escherichia coli time kill study: <1 Log10 CFU/mL
Escherichia coli; 2 × MIC, 2 h
  Viable counts, Escherichia coli time kill study: <1 Log10 CFU/mL
Escherichia coli; 2 × MIC, 4 h
  Viable counts, Escherichia coli time kill study: <1 Log10 CFU/mL
Escherichia coli; 2 × MIC, 6 h
  Viable counts, Escherichia coli time kill study: <1 Log10 CFU/mL
Escherichia coli; 2 × MIC, 24 h
  Viable counts, Escherichia coli time kill study: <1 Log10 CFU/mL
Escherichia coli; 2 × MIC, time 0
  Viable counts, Escherichia coli time kill study: 5.16 Log10 CFU/mL
Escherichia coli; 4 × MIC, 1 h
  Viable counts, Escherichia coli time kill study: <1 Log10 CFU/mL
